The text below walks through data of PMC10235067, “Increased renal elimination of endogenous and synthetic pyrimidine nucleosides in concentrative nucleoside transporter 1 deficient mice” (Nature Communications, 2023).

Series [1] concerns dihydropyrimidine dehydrogenase (DPD). Particulars: cited from earlier work.
For series [2], the system named is CNT1. Conditions: for fold increase of content in urine of Slc28a1-/- mice: Slc28a1-/- vs Slc28a1+/+, urine collected over 12 h starvation, 8-week-old mice, n = 6; for Concentration in urine: Slc28a1+/+ and Slc28a1-/- mice, 12 h starvation.
Method: (§1) Linearity was established for analytes over the concentration ranges observed and the lower limit of quantification of the LC–MS/MS assay was approximately 0.1 ng/ml for each analyte (Fig. S2).
(§2) Standard solutions of all nucleotide targets were serially diluted to generate calibration solutions at concentrations of 0.0, 0.0001, 0.001, 0.01, 0.1, 1.0, and 10 µg/ml. Urine samples were prepared by adding 20 µL of urine solution to 80 µL of 50:50 H2O:MeOH containing internal standard, vortexing and centrifuging at 20,000 × g; then, 50 µL aliquots were placed into glass vials, dried in a SpeedVac and reconstituted in 5% MeOH with 0.1% formic acid for injection.
(§3) Samples were quantified using a heated electrospray ionization source (HESI) on a Thermo Scientific TQS Quantiva triple quadrupole mass spectrometer, and separation was achieved using a Thermo Scientific Ultimate 3000 HPLC equipped with an Agilent 120 SB-C18 reversed-phase column (2 × 100 mm, 2.7 µm particle size) maintained at 40 °C. […] For all experiments, the capillary voltage was set to 4.5 kV with a capillary temperature of 350 °C, a vaporizer temperature of 100 °C, a sheath gas flow of 12, an auxiliary gas flow of 13, and a 1.6 sweep gas. For selected reaction monitoring (SRM) mode, Q1 and Q3 were set to 0.7 full width at half maximum (FWHM) resolution, a cycle time of 0.8 s, and a CID gas pressure of 1.5 mTorr.
The target in series [3] is T1, CNT1 (Mus musculus, UniProt E9PXX9).
T1 sequence (E9PXX9 1-648): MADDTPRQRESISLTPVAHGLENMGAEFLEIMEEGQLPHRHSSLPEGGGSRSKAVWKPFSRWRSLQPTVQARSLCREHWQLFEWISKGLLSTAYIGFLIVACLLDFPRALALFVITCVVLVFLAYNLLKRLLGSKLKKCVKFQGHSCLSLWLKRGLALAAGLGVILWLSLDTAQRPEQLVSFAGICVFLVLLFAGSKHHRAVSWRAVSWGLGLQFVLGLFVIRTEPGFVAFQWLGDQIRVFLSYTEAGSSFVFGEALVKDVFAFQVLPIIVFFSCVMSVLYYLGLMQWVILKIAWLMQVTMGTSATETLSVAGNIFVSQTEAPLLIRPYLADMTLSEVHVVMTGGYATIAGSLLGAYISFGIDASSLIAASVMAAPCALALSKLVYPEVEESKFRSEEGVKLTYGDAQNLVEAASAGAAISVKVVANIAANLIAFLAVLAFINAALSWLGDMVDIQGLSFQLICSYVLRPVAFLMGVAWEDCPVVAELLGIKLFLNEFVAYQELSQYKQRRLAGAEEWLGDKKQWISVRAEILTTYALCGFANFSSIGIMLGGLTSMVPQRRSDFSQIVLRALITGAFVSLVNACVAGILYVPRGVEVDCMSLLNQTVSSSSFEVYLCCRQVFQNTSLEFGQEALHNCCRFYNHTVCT
Particulars: Slc28a1+/+ (CNT1 WT) mice, urine, one value per animal; Figure 2D-F source data.
Method: as §1, §2, §3

Consider `O=c1[nH]cc(F)c(=O)[nH]1` [5’-fluorouracil], for which the “share of elimination mediated by DPD through hepatic metabolism” value in series [1] is given as 80%. With `O=c1cc[nH]c(=O)[nH]1` [Uracil], the “fold increase of content in urine of Slc28a1-/- mice” value in the series on CNT1 [2] stood at 4.6 fold. Still for that read-out and setting: the figure for `Nc1ccn([C@@H]2O[C@H](CO)[C@@H](O)[C@H]2O)c(=O)n1` [cytidine] is 52.9 fold. As to `Nc1ncnc2c1ncn2[C@H]1C[C@H](O)[C@@H](CO)O1` [deoxyadenosine], the “Urine level of nucleoside / deoxynucleoside / nucleobase, CNT1 WT Urine (individual mice)” value at CNT1 [3] was found to be 0. Moreover, the Concentration in urine result with CNT1 [2] was “undetectable”. As to `Nc1nc2c(ncn2[C@H]2C[C@H](O)[C@@H](CO)O2)c(=O)[nH]1` [deoxyguanosine], the Concentration in urine result in the series with CNT1 [2] was “undetectable”.

On to `O=c1ccn([C@H]2C[C@H](O)[C@@H](CO)O2)c(=O)[nH]1` [deoxyuridine], for which the “fold increase of content in urine of Slc28a1-/- mice” value with CNT1 [2] is given as 2.4 fold. Still for that read-out and setting: then `O=c1ccn([C@@H]2O[C@H](CO)[C@@H](O)[C@H]2O)c(=O)[nH]1` [uridine], with 5.9 fold.
